Earlier results, collected in patent US20250257354A1, “METHODS AND COMPOSITIONS RELATED TO TRNA THERAPEUTICS FOR TREATING VISION LOSS” (UNIVERSITY OF IOWA RESEARCH FOUNDATION, priority 2022, published 2025).

Conditions: ACT DMD Phase 3 NCT01826487; ACT CF NCT02139306

O=C(O)c1cccc(-c2noc(-c3ccccc3F)n2)c1 [Ataluren]
efficacy in patient populations: unexpectedly low efficacy
